# Test results from US4201866A, “O-Hemi-succinate of propranolol” (American Home Products Corporation, priority 1977, dated 1980).
# Counter-ions that a name gives are not always drawn.
# Test: Oral administration of the compound of Example 6; plasma levels (Example 7)
# Format: in vivo
# Details: beagle dogs
# Procedure: In this experiment, four beagle dogs were given an 80 mg. oral dose of propranolol HCl or an equivalent dose of the o-hemi-succinate. The animals were divided into two groups of two, each group receiving the drugs according to a crossover design. The crossover experiment was repeated twice. A period of at least one week elapsed between each dosing day. Blood samples were obtained at regular intervals after dosing a plasma was analyzed for free propranolol concentrations.
# The compound of Example 6 was orally administered to beagle dogs in a similar manner as Example 2. Plasma levels of the compound of Example 6 were twice as high as those obtained after an equivalent dose of propranol hydrochloride.
smiles,measurement,value
"CCOC(=O)CCC(=O)OC(CNC(C)C)COc1cccc2ccccc12 (stereo not shown) [Example 6, Butanedioic acid-1-[(2-(1-methylethyl)amino] -1-[(1-naphtalenyloxy)methyl]diethylether hydrochloride]",Plasma levels compared with equivalent dose of propranolol hydrochloride,twice as high
